Test results as given in patent EP0065295A1, “Tryptamine derivatives of thienyloxypropanol amines, process for their preparation, pharmaceutical compositions containing them and preparation of the latter” (HOECHST AKTIENGESELLSCHAFT, priority 1981, dated 1982).

How the values were obtained:
[1] = Acute toxicity, LD50 mouse i.v.; settings: in vivo, iv, read-out: Akute Toxizität LD50 Maus i.v.
Text: (§1) Die antihypertensive Wirksamkeit der erfindungsgemäßen Verbindungen kann in verschiedenen pharmakolgischen Tests nachgewiesen werden.

wachen Hund = assay: Blood pressure lowering in the conscious dog; format: in vivo; settings: wacher Hund; compared with Bucindolol
Text: as §1

narkotisierten Hund = assay: Blood pressure lowering in the anaesthetised dog; format: in vivo; settings: narkotisierter Hund; compared with Bucindolol
Text: as §1

[2] = Acute toxicity, LD50 rat i.v.; settings: in vivo, iv, read-out: Akute Toxizität LD50 Ratte i.v.
Text: as §1

CC(C)(Cc1c[nH]c2ccccc12)NCC(O)COc1ccsc1C(N)=O (racemic) [Beispiel 2, 3-<3-[1,1-Dimethyl-2-(indol-3-yl)äthylamino]-2-hydroxy-- propoxy>-thiophen-2-carbonsäureamid]
LD50 [1]: 74 mg/kg
blutdrucksenkend (wachen Hund): ähnlich stark und anhaltend blutdrucksenkend wie das bekannte Bucindolol
blutdrucksenkend (narkotisierten Hund): ähnlich stark und anhaltend blutdrucksenkend wie das bekannte Bucindolol
LD50 [2]: 86 mg/kg

CC(C)(Cc1c[nH]c2ccccc12)NCC(O)COc1ccccc1C#N (stereo not drawn) [Bucindolol, 2-<2-Hydroxy-3-<[2-(3-indolyl)-1,1-dimethyläthyl] amino>-propoxy>benzonitril, reference compound]
LD50 ([1]; Maus, i.v.): 9.6 mg/kg
LD50 ([2]; Ratte, i.v.): 20.2 mg/kg
